The NIST ThermoML archive (doi:10.1007/s10765-011-1052-5)
“And” between values parts separate entries of the source, which are not always exact repeats. Equal entries are not always repeated.

Settings: Fluid (supercritical or subcritical phases), Hot wire method

[He] [helium]
Settings	thermal conductivity
323.19 K, 5030 kPa	0.1676 W/m/K
323.19 K, 10055 kPa	0.1696 W/m/K and 0.1695 W/m/K and 0.1694 W/m/K
323.19 K, 29885 kPa	0.1784 W/m/K and 0.1786 W/m/K
323.19 K, 29886 kPa	0.1782 W/m/K
323.19 K, 29887 kPa	0.1783 W/m/K
323.2 K, 5030 kPa	0.1674 W/m/K and 0.1675 W/m/K and 0.1677 W/m/K
323.21 K, 50067 kPa	0.187 W/m/K
323.21 K, 50070 kPa	0.1872 W/m/K
323.21 K, 50072 kPa	0.1872 W/m/K
323.21 K, 50075 kPa	0.187 W/m/K
323.21 K, 70102 kPa	0.196 W/m/K
323.21 K, 70105 kPa	0.196 W/m/K
323.21 K, 70109 kPa	0.1961 W/m/K
323.21 K, 70112 kPa	0.1964 W/m/K
323.21 K, 98251 kPa	0.2089 W/m/K
323.21 K, 98254 kPa	0.2085 W/m/K
323.21 K, 98259 kPa	0.2085 W/m/K
323.21 K, 98263 kPa	0.2086 W/m/K
373.22 K, 5137 kPa	0.1853 W/m/K
373.22 K, 30213 kPa	0.1948 W/m/K
373.22 K, 30214 kPa	0.1948 W/m/K and 0.1945 W/m/K
373.22 K, 49990 kPa	0.2028 W/m/K
373.22 K, 49992 kPa	0.2028 W/m/K
373.22 K, 49994 kPa	0.2033 W/m/K
373.23 K, 5137 kPa	0.185 W/m/K and 0.1845 W/m/K
373.23 K, 10114 kPa	0.1866 W/m/K and 0.1868 W/m/K
373.23 K, 69936 kPa	0.2139 W/m/K and 0.2138 W/m/K
373.23 K, 69937 kPa	0.214 W/m/K
373.23 K, 97514 kPa	0.2284 W/m/K
373.23 K, 97516 kPa	0.2277 W/m/K
373.23 K, 97527 kPa	0.2275 W/m/K
473.27 K, 5260 kPa	0.2166 W/m/K
473.27 K, 5261 kPa	0.2169 W/m/K
473.27 K, 10172 kPa	0.2187 W/m/K and 0.2183 W/m/K
473.27 K, 10173 kPa	0.2193 W/m/K
473.27 K, 50076 kPa	0.2321 W/m/K
473.27 K, 50078 kPa	0.2322 W/m/K
473.27 K, 50080 kPa	0.2317 W/m/K
473.27 K, 70131 kPa	0.2428 W/m/K
473.27 K, 70135 kPa	0.2422 W/m/K
473.27 K, 70138 kPa	0.2419 W/m/K
473.27 K, 99148 kPa	0.2558 W/m/K
473.27 K, 99151 kPa	0.2549 W/m/K
473.27 K, 99156 kPa	0.2552 W/m/K
473.28 K, 5261 kPa	0.2173 W/m/K
473.28 K, 30084 kPa	0.2252 W/m/K
473.28 K, 30085 kPa	0.2251 W/m/K and 0.226 W/m/K
473.29 K, 99160 kPa	0.2472 W/m/K
573.24 K, 30146 kPa	0.2549 W/m/K
573.24 K, 50100 kPa	0.2618 W/m/K
573.24 K, 70129 kPa	0.2675 W/m/K
573.24 K, 97066 kPa	0.2798 W/m/K
573.24 K, 97071 kPa	0.2805 W/m/K
573.24 K, 97072 kPa	0.2792 W/m/K
573.25 K, 5197 kPa	0.2478 W/m/K
573.25 K, 5199 kPa	0.2472 W/m/K
573.25 K, 5200 kPa	0.2477 W/m/K
573.25 K, 10292 kPa	0.2503 W/m/K
573.25 K, 10294 kPa	0.2496 W/m/K
573.25 K, 10295 kPa	0.2496 W/m/K
573.25 K, 30146 kPa	0.2552 W/m/K
573.25 K, 30149 kPa	0.2558 W/m/K
573.25 K, 50095 kPa	0.2609 W/m/K
573.25 K, 50100 kPa	0.2599 W/m/K
573.25 K, 70160 kPa	0.268 W/m/K
573.25 K, 70165 kPa	0.2662 W/m/K
672.87 K, 98224 kPa	0.3057 W/m/K
672.87 K, 98230 kPa	0.3055 W/m/K
672.87 K, 98231 kPa	0.3054 W/m/K
672.88 K, 30064 kPa	0.2852 W/m/K
672.88 K, 30085 kPa	0.2823 W/m/K
672.88 K, 50184 kPa	0.2882 W/m/K
672.88 K, 70068 kPa	0.293 W/m/K
672.88 K, 70074 kPa	0.2949 W/m/K
672.88 K, 70081 kPa	0.2948 W/m/K
672.89 K, 5417 kPa	0.2774 W/m/K
672.89 K, 10409 kPa	0.2788 W/m/K
672.89 K, 10412 kPa	0.279 W/m/K
672.89 K, 10414 kPa	0.2784 W/m/K
672.89 K, 30054 kPa	0.2843 W/m/K
672.89 K, 50178 kPa	0.2895 W/m/K
672.89 K, 50182 kPa	0.2888 W/m/K
672.9 K, 5413 kPa	0.2765 W/m/K
672.9 K, 5416 kPa	0.277 W/m/K
771.89 K, 50118 kPa	0.3162 W/m/K
771.89 K, 50125 kPa	0.3184 W/m/K
771.89 K, 50128 kPa	0.3182 W/m/K
771.89 K, 70299 kPa	0.3237 W/m/K
771.89 K, 70303 kPa	0.3173 W/m/K
771.89 K, 70305 kPa	0.3224 W/m/K
771.89 K, 99452 kPa	0.3302 W/m/K
771.89 K, 99460 kPa	0.3299 W/m/K
771.89 K, 99462 kPa	0.3321 W/m/K
771.9 K, 30345 kPa	0.3126 W/m/K
771.9 K, 30348 kPa	0.3102 W/m/K
771.9 K, 30350 kPa	0.313 W/m/K
771.91 K, 10197 kPa	0.3094 W/m/K
771.91 K, 10199 kPa	0.3093 W/m/K
771.92 K, 5204 kPa	0.3065 W/m/K
771.93 K, 3005 kPa	0.3046 W/m/K
771.93 K, 3008 kPa	0.3049 W/m/K
771.93 K, 5202 kPa	0.3079 W/m/K
771.94 K, 1059 kPa	0.2998 W/m/K
771.94 K, 1068 kPa	0.3028 W/m/K
771.94 K, 1071 kPa	0.3022 W/m/K
771.94 K, 1074 kPa	0.304 W/m/K
771.94 K, 3001 kPa	0.3012 W/m/K
771.94 K, 3003 kPa	0.3055 W/m/K
